Test results: patent US9127040B2, “Regulation of sodium channels by PLUNC proteins” (The University of North Carolina at Chapel Hill, priority 2011, dated 2015)
Ends that are not written are not given here.

Target: T1, αENaC (Homo sapiens, UniProt P37088)
T1 sequence (P37088 1-669): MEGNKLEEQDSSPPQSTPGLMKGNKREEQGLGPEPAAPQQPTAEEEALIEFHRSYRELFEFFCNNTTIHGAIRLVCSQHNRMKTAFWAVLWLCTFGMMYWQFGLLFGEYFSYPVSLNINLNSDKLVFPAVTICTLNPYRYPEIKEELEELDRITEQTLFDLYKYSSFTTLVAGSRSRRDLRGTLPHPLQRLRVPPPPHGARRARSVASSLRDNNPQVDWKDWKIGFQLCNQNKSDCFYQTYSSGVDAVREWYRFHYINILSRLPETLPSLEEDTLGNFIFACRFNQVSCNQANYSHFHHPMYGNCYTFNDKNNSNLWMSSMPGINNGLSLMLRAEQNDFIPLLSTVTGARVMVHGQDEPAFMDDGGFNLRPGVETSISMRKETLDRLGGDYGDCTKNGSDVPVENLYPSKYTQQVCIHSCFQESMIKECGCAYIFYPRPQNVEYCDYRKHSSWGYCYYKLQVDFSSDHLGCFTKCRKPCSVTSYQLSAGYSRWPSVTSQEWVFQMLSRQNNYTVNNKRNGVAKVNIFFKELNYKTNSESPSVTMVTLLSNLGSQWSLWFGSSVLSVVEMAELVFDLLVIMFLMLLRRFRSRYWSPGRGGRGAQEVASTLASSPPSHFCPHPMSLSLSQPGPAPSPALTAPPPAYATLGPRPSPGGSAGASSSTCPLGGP
Assay: Biotinylated peptide pull-down of ENaC subunits from HEK293T cells
Format: binding
Set-up: expressed in transfected cells; host or cells: HEK293T cells (lysate)
Details: subunits individually expressed
Procedure: HEK293T cells were transfected with double-tagged human ENaC subunits with HA and V5 epitopes at the N- and C-termini, respectively, in combination with wild-type untagged subunit cDNA. When all three ENaC subunits were expressed, 0.5 μg of each subunit were transfected per well. When expressed individually, 0.75 μg of the subunit were transfected per well. The transfected cells were lysed 24 h later using NP-40 buffer with 1× complete EDTA-free protease inhibitor (Roche, Basel, Switzerland). The lysate was centrifuged at 16,300×g for 15 minutes at 4° C. and the supernatant collected. Protein concentration was determined using the BCA assay and 500 μg of protein plus 0.25 mg peptide and 100 μL of neutravidin were added to a spin column and rotated end-over-end at 4° C. for 24 h (all ThermoFisher Scientific, Rockford, Ill., USA). Flow-through was collected by centrifugation at 1000×g for 30 s. […] The membrane was probed using 1:1000 anti-V5 antibody (Invitrogen, Carlsbad, Calif., USA) overnight at 4° C. in 3% fish gelatin in TBS-T. The blot was then incubated for 1 h at room temperature with an ECL sheep anti-mouse IgG secondary antibody and detected by ECL reagent (ThermoFisher Scientific, Waltham, Mass., USA) or by incubation with a goat anti-mouse IRDye secondary antibody and analyzed by an Odyssey infrared imaging system (LI-COR Biosciences, Lincoln, Nebr., USA).

GGLPVPLDQTLPLNVNPA [S18]
binding to αENaC (pull-down): without any detectable binding
